Experiment [1] addresses T1, human M2 receptor (Homo sapiens, UniProt P08172).
T1 construct: expressed in transfected cells; host or cells: CHO-DUKX (CHO-DUKX-M2-GIRK)
T1 sequence (P08172 1-466): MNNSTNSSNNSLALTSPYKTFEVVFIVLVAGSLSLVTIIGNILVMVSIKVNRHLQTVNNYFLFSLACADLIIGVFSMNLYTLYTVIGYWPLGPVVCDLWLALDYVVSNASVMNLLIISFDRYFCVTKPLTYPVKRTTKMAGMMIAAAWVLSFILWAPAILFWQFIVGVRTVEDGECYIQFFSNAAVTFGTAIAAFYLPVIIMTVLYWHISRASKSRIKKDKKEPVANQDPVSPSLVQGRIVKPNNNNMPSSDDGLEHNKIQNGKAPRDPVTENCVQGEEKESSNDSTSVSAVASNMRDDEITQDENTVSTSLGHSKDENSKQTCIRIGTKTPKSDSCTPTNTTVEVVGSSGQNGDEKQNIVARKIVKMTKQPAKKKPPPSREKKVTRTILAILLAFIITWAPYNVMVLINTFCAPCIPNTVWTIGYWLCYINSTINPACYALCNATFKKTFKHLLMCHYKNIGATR
Kind of experiment: Functional M2-GIRK1/4 activation test: allosteric potency (EC50) and efficiency at EC20 acetylcholine. The format is cell-based. To be noted: CHO-DUKX-M2-GIRK cells; for EC50: voltage-sensitive dye, acetylcholine at EC20, in some cases mean of two or more determinations; for Emax / Efficiency: boosting of the acetylcholine effect at EC20 acetylcholine concentration. In outline:
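CHO-DUKX cells stably expressing human M2 and GIRK1/4; membrane potential tracked with voltage-sensitive dye at room temperature. Compound added 50 s before acetylcholine at its EC20, then hyperpolarization read 60 s. EC50 (allosteric potency) and efficiency (boost of EC20 ACh effect) from 4-parameter Hill fit.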

Experiment [2] has as its target T1, human M2 receptor. Kind of experiment: Functional M2-GIRK1/4 activation test: positive cooperativity (α factor), shift of acetylcholine dose-response curve. Type of experiment: cell-based. To be noted: Allosteric EC50 shift of acetylcholine 8-point dose-response curve; CHO-DUKX-M2-GIRK cells; α>1 = positive cooperativity. In outline: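 CHO-DUKX cells stably expressing human M2 and GIRK1/4, loaded with voltage-sensitive dye at room temperature; hyperpolarization followed by fluorescence. Each test-substance concentration, added first, combined with an 8-point acetylcholine dose-response; shift of the acetylcholine curve analysed by allosteric EC50 shift model to give cooperativity factor α.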

SMILES strings stand for the structures.

One may read the EC50 as the concentration that produces a half-maximal response. A high value points to weaker potency. As a reminder, the Emax is the maximal effect, on the per cent scale that the assay sets. Take `CC(C)C[C@@H](NC(=O)c1cn(-c2c(F)cc(F)cc2F)c2nc(N3C[C@@H](O)[C@H](O)C3)c(F)cc2c1=O)C(F)(F)F` [Example 14, 7-[(3R,45)-3,4-dihydroxypyrrolidin-1-yl]-6-fluoro-4-oxo-N-[(2R)-1,1,1-trifluoro-4-methylpentan-2-yl]-1-(2,4,6-trifluorophenyl)-1,4-dihydro-1,8-naphthyridine-3-carboxamide]: at human M2 receptor [1], the EC50 was 5.5 nM and the maximal response (Emax) is 100%. Further, the “Cooperativity (alpha factor)” value on human M2 receptor [2] is listed as 49.
As to `CC[C@@H](NC(=O)c1cn(-c2c(F)cc(F)cc2F)c2nc(N3C[C@@H](O)[C@H](O)C3)c(F)cc2c1=O)C(F)(F)F` [Example 36, 7-[(3R,4R)-3,4-dihydroxypyrrolidin-1-yl]-6-fluoro-4-oxo-N-[(2R)-1,1,1-trifluorobutan-2-yl]-1-(2,4,6-trifluorophenyl)-1,4-dihydro-1,8-naphthyridine-3-carboxamide], on human M2 receptor [1], the concentration for a half-maximal effect (EC50) turned out to be 5 nM and the maximal response (Emax) is 92%. Besides, the “Cooperativity (alpha factor)” value on human M2 receptor [2] stood at 51.
At human M2 receptor [1], `CC(C)(NC(=O)c1cn(-c2c(F)cc(F)cc2Cl)c2nc(N3C[C@@H](O)[C@H](O)C3)c(F)cc2c1=O)C(F)(F)F` [Example 41, 1-(2-chloro-4,6-difluorophenyl)-7-[(3R,4R)-3,4-dihydroxypyrrolidin-1-yl]-6-fluoro-4-oxo-N-(1,1,1-trifluoro-2-methylpropan-2-yl)-1,4-dihydro-1,8-naphthyridine-3-carboxamide] came in with an EC50 of 3.3 nM and an Emax of 100%. The “Cooperativity (alpha factor)” value on human M2 receptor [2] was 37.
For the molecule `CC(C)(NC(=O)c1cn(-c2c(F)cc(F)cc2F)c2nc(N3C[C@@H](O)[C@H](O)C3)c(F)cc2c1=O)C(F)(F)F` [Example 23, 7-[(3R,4R)-3,4-dihydroxypyrrolidin-1-yl]-6-fluoro-4-oxo-N-(1,1,1-trifluoro-2-methylpropan-2-yl)-1-(2,4,6-trifluorophenyl)-1,4-dihydro-1,8-naphthyridine-3-carboxamide], at human M2 receptor [1], a half-maximal response (EC50) required 5.5 nM and the maximal effect (Emax) was 100%. Further, the “Cooperativity (alpha factor)” value at human M2 receptor [2] was 41.
For `CC(C)(C)NC(=O)c1cn(-c2c(F)cc(F)cc2F)c2nc(N3C[C@@H](O)[C@H](O)C3)c(F)cc2c1=O` [Example 90, N-tert-Butyl-7-[(3R,4R)-3,4-dihydroxypyrrolidin-1-yl]-6-fluoro-4-oxo-1-(2,4,6-trifluoro-phenyl)-1,4-dihydro-1,8-naphthyridine-3-carboxamide], on human M2 receptor [1], the EC50 worked out at 18.5 nM and the Emax worked out at 95%. On human M2 receptor [2], the “Cooperativity (alpha factor)” value came to 30.
Turning to `CC(NC(=O)c1cn(-c2c(F)cc(F)cc2F)c2nc(N3CC(CO)(CO)C3)c(F)cc2c1=O)C(F)(F)C(F)(F)F` (racemic) [Example 170, 7-[3,3-Bis(hydroxymethyl)azetidin-1-yl]-6-fluoro-4-oxo-N-[3,3,4,4,4-pentafluorobutan-2-yl]-1-(2,4,6-trifluorophenyl)-1,4-dihydro-1,8-naphthyridine-3-carboxamide], on human M2 receptor [1], the EC50 came out at 8.1 nM and the Efficiency came to 100%. Besides, the “Cooperativity (alpha factor)” value at human M2 receptor [2] is reported as 38.
Consider `CC[C@H](NC(=O)c1cn(-c2c(F)cc(F)cc2F)c2nc(N3C[C@@H](O)[C@H](O)C3)c(F)cc2c1=O)C(F)(F)F` [Example 6, 7-[(3R,4R)-3,4-Dihydroxypyrrolidin-1-yl]-6-fluoro-4-oxo-N-[(2S)-1,1,1-trifluorobutan-2-yl]-1-(2,4,6-trifluorophenyl)-1,4-dihydro-1,8-naphthyridine-3-carboxamide], for which, on human M2 receptor [1], the concentration for a half-maximal effect (EC50) worked out at 6.17 nM and the Emax came to 94%. The “Cooperativity (alpha factor)” value at human M2 receptor [2] amounted to 58.
As to `C[C@@H](NC(=O)c1cn(-c2c(F)cc(F)cc2Cl)c2nc(N3C[C@@H](O)[C@H](O)C3)c(F)cc2c1=O)C(F)(F)F` (single isomer, unassigned) [Example 228], on human M2 receptor [1], the midpoint of the response, the EC50, lay at 6.4 nM and the Efficiency was 93%. On human M2 receptor [2], the “Cooperativity (alpha factor)” value is on record as 33.
At human M2 receptor [1], `CC(NC(=O)c1cn(-c2c(F)cc(F)cc2F)c2nc(N3CC[C@H](O)C3)c(F)cc2c1=O)C(F)(F)C(F)(F)F` (single isomer, unassigned) [Example 113] came in with a half-maximal effective concentration (EC50) of 2 nM and an Emax of 100%. Besides, the “Cooperativity (alpha factor)” value at human M2 receptor [2] is 35.
At human M2 receptor [1], `O=C(N[C@@H](C1CC1)C(F)(F)F)c1cn(-c2c(F)cc(F)cc2F)c2nc(N3C[C@@H](O)[C@H](O)C3)c(F)cc2c1=O` [Example 7, N-[(1S)-1-Cyclopropyl-2,2,2-trifluoroethyl]-7-[(3R,4R)-3,4-dihydroxypyrrolidin-1-yl]-6-fluoro-4-oxo-1-(2,4,6-trifluorophenyl)-1,4-dihydro-1,8-naphthyridine-3-carboxamide] registered an EC50 of 5.64 nM and an Emax of 93%. Further, the “Cooperativity (alpha factor)” value at human M2 receptor [2] amounted to 57.
At human M2 receptor [1], `CC(NC(=O)c1cn(-c2ncc(F)cc2F)c2nc(N3CC(O)C(O)C3)c(F)cc2c1=O)C(F)(F)C(F)(F)F` (single isomer, unassigned) [Example 45] gave an EC50 of 8.47 nM and an Emax of 100%. Moreover, the “Cooperativity (alpha factor)” value on human M2 receptor [2] worked out at 62.
As to `CC(C)(CC(F)(F)F)NC(=O)c1cn(-c2c(F)cc(F)cc2F)c2nc(N3C[C@@H](O)[C@H](O)C3)c(F)cc2c1=O` [Example 13, 7-[(3R,4R)-3,4-dihydroxypyrrolidin-1-yl]-6-fluoro-4-oxo-N-(4,4,4-trifluoro-2-methylbutan-2-yl)-1-(2,4,6-trifluorophenyl)-1,4-dihydro-1,8-naphthyridine-3-carboxamide], on human M2 receptor [1], the concentration for a half-maximal effect (EC50) came out at 6.2 nM and the Emax stood at 94%. The “Cooperativity (alpha factor)” value on human M2 receptor [2] is recorded as 49.
On human M2 receptor [1], `CC(C)(NC(=O)c1cn(-c2c(F)cc(F)cc2Cl)c2nc(N3C[C@@H](O)[C@H](O)C3)c(F)cc2c1=O)C(F)F` (single isomer, unassigned) [Example 143] showed a half-maximal effective concentration (EC50) of 1.5 nM and an Efficiency of 94%. The “Cooperativity (alpha factor)” value on human M2 receptor [2] worked out at 40.
On human M2 receptor [1], `O=C(NC(C1CC1)(C1CC1)C(F)(F)C(F)(F)F)c1cn(-c2c(F)cc(F)cc2F)c2nc(N3CC(CO)(CO)C3)c(F)cc2c1=O` [Example 212, 7-[3,3-bis(hydroxymethyl)azetidin-1-yl]-N-(1,1-dicyclopropyl-2,2,3,3,3-pentafluoropropyl)-6-fluoro-4-oxo-1-(2,4,6-trifluorophenyl)-1,4-dihydro-1,8-naphthyridine-3-carboxamide] returned an EC50 of 2 nM and an Emax of 100%. Moreover, the “Cooperativity (alpha factor)” value on human M2 receptor [2] is listed as 28.
On human M2 receptor [1], `CCC(COC(F)(F)F)NC(=O)c1cn(-c2c(F)cc(F)cc2F)c2nc(N3C[C@@H](O)[C@H](O)C3)c(F)cc2c1=O` (single isomer, unassigned) [Example 31] registered an EC50 of 4.15 nM and an Emax of 100%. Moreover, the “Cooperativity (alpha factor)” value on human M2 receptor [2] came out at 37.
`CCC(C)(C)NC(=O)c1cn(-c2c(F)cc(F)cc2F)c2nc(N3C[C@@H](O)[C@H](O)C3)c(F)cc2c1=O` [Example 89, 7-[(3R,4R)-3,4-dihydroxypyrrolidin-1-yl]-6-fluoro-N-(2-methylbutan-2-yl)-4-oxo-1-(2,4,6-tri-fluorophenyl)-1,4-dihydro-1,8-naphthyridine-3-carboxamide]: on human M2 receptor [1], the concentration giving a half-maximal response (EC50) stood at 4.75 nM and the Emax was 100%. Also, the “Cooperativity (alpha factor)” value at human M2 receptor [2] is recorded as 44.
Take `O=C(NC(C(F)(F)F)C(F)(F)F)c1cn(-c2ncc(F)cc2F)c2nc(N3C[C@@H](O)[C@H](O)C3)c(F)cc2c1=O` [Example 145, 1-(3,5-Difluoropyridin-2-yl)-7-[(3R,4R)-3,4-dihydroxypyrrolidin-1-yl]-6-fluoro-N-(1,1,1,3,3,3-hexafluoropropan-2-yl)-4-oxo-1,4-dihydro-1,8-naphthyridine-3-carboxamide]: at human M2 receptor [1], the concentration giving a half-maximal response (EC50) was found to be 11.2 nM and the Emax was 100%. For the same molecule, the “Cooperativity (alpha factor)” value at human M2 receptor [2] was found to be 86.
